# In patent publication EP4596546A1, “SULFONAMIDE COMPOUND, AND HARMFUL-ARTHROPOD EXTERMINATION COMPOSITION CONTAINING SAME” (priority 2022, dated 2024):
# How the values were obtained:
# Assay type in all cases: in vivo
# [1] = test system: cotton worm (Spodoptera litura); assay: Test Method 3: sprayed cabbage, cut aerial part, second-instar larvae of cotton worm; conditions: 120 h, spray 20 mL/seedling, after 5 days
# Procedure: (§1) Next, Test Examples are used to show effects of the Present compounds on harmful arthropods. In the following Test Examples, the tests were carried out at 25°C. Each test compound is made to a formulation according to a similar method to that described in the Formulation Example 1, and thereto is added water containing 0.03 v/v% of Shindain (registered trademark) to prepare a diluted solution containing a prescribed concentration of the test compound. Cabbage (Brassicae oleracea) seedling (on the developmental stage of the second to third true leaf) is planted in a container, and the diluted solutions are sprayed to the seedling at a ratio of 20 mL/seedling. Thereafter, the aerial part of the seedling is cut out and then is installed into a container in which a filter paper is placed at the bottom of the container. Five of second-instar larvae of cotton worm (Spodoptera litura) are released into the container. After 5 days, the number of the surviving insects is counted, and the mortality of insects is calculated by the following equation. [formula]
# [2] = test system: diamondback moth (Plutella xylostella); assay: Test Method 4: sprayed cabbage, cut aerial part, second-instar larvae of diamondback moth; conditions: 120 h, spray 20 mL/seedling, after 5 days
# Procedure: as §1, with “diamondback moth (Plutella xylostella)” for “cotton worm (Spodoptera litura)”
# [3] = test system: housefly (Musca domestica); assay: Test Method 8: coated glass vial contact test, housefly female adults; conditions: 24 h, 40 mg/m^2 on vial inner face, 1 day
# Procedure: (§2) Next, Test Examples are used to show effects of the Present compounds on harmful arthropods. In the following Test Examples, the tests were carried out at 25°C.
# An acetone solution which is adjusted to 800 ppm of each test compound is poured into a 20 mL glass vial, and the test compound is coated uniformly on inner face of the vial so as to 40 mg/m^2 of the test compound treated, and the vial is then dried.
# 5 housefly (Musca domestica) female adults are released into the treated vial, and the vial is then covered with lid. After the prescribed time, the state of the housefly is examined, and the mortality is calculated by the following equation. [formula]
# [4] = test system: cotton worm (Spodoptera litura); assay: Test Method 9: sprayed cabbage seedling, third-instar larvae of cotton worm (formulation per Formulation Example 5); conditions: 144 h, spray 20 mL/seedling, after 6 days
# Procedure: as §2
# (§3) Each test compound is made to a formulation according to a similar method to that described in the Formulation Example 5, and thereto is added water containing 0.03 v/v% of Shindain (registered trademark) to prepare a diluted solution containing a prescribed concentration of the test compound.
# (§4) Cabbage (Brassicae oleracea) seedling (on the developmental stage of the third to fourth true leaf) is planted in a container, and the diluted solutions are sprayed to the seedling at a ratio of 20 mL/seedling. Thereafter, ten of third-instar larvae of cotton worm (Spodoptera litura) are released. After 6 days, the number of the surviving insects is counted, and the mortality of insects is calculated by the following equation. [formula]
# [5] = test system: diamondback moth (Plutella xylostella); assay: Test Method 10: sprayed cabbage seedling, third-instar larvae of diamondback moth (formulation per Formulation Example 5); conditions: 120 h, spray 20 mL/seedling, after 5 days
# Procedure: as §2, §3
# as §4, with “diamondback moth (Plutella xylostella)” for “cotton worm (Spodoptera litura)”, “5” for “6”
# [6] = test system: common house mosquito (Culex pipiens pallens); assay: Test Method 12: last instar larvae of common house mosquito released into diluted solution; conditions: 24 h, after 1 day
# Procedure: as §2
# Each test compound is formulated to a test formulation according to a similar method to that described in the Formulation Example 1, and water is added in preparing for a diluted solution containing a prescribed concentration of the test compound.
# Into the diluted solution, 30 last instar larvae of common house mosquito (Culex pipiens pallens) are released, and after 1 day, the state of the house mosquito larvae is examined, and the mortality is calculated by the following equation. [formula]
# [7] = test system: Western corn rootworm (Diabrotica virgifera virgifera); assay: whole plant or invertebrate; conditions: 120 h
# Procedure: as §2
# Each 1 mg of the test compounds is dissolved in 50 µL of a mixed solution consisting of 5% of polyoxyethylene sorbitan mono-cocoate and 95% of acetone by volume ratio. Thereto is added water containing 0.03% by volume of Shindain (registered trademark) to prepare a diluted solution containing a prescribed concentration of the test compound.
# A young seedling of corn (Zea mays) is immersed into the diluted solution for 30 seconds. Thereafter, two seedlings are installed in a plastic petri dish (90 mm […]), and 10 of second-instar larvae of Western corn rootworm (Diabrotica virgifera virgifera) are released into the dish. After 5 days, the number of the dead insects is counted, and the mortality of insects is calculated by the following equation. Mortality (%) = (Numberofdeadinsects/10) × 100 [formula]
# [8] = test system: Haemaphysalis longicornis; assay: Test Method 7: coated glass vial contact test, Haemaphysalis longicornis nymphs; conditions: 48 h, 100 mg/m^2 on vial inner face, 2 days
# Procedure: An acetone solution which is adjusted to 2000 ppm of each test compound is poured into a 20 mL glass vial, and the test compound is coated uniformly on inner face of the vial so as to 100 mg/m^2 of the test compound treated, and the vial is then dried.
# 5 Haemaphysalis longicornis nymphs are released into the treated vial, and the vial is then covered with lid. After the prescribed time, the state of the Haemaphysalis longicornis is examined, and the mortality is calculated by the following equation.
# [9] = test system: German cockroach (Blattella germanica); assay: Test Method 6: coated glass vial contact test, German cockroach male adults; conditions: 72 h, 40 mg/m^2 on vial inner face, 3 days
# Procedure: as §2
# An acetone solution which is adjusted to 800 ppm of each test compound is poured into a 50 mL glass vial, and the test compound is coated uniformly on inner face of the vial so as to 40 mg/m^2 of the test compound treated, and the vial is then dried.
# 5 German cockroach (Blattella germanica) male adults are released into the treated vial, and the vial is then covered with lid. After the prescribed time, the state of the German cockroach is examined, and the mortality is calculated by the following equation. [formula]
SMILES,mortality at 500 ppm [1] [%],mortality at 500 ppm [2] [%],"mortality at 40 mg/m2, 40 mg/m2 [3] [%]",mortality at 200 ppm [4] [%],mortality at 50 ppm [5] [%],mortality at 200 ppm [5] [%],mortality at 3.5 ppm [6] [%],mortality at 200 ppm [7] [%],"mortality at 100 mg/m2, 100 mg/m2 [8] [%]","mortality at 40 mg/m2, 40 mg/m2 [9] [%]"
CNS(=O)(=O)c1c(-c2ccc(OCC(F)(F)C(F)(F)F)n(C)c2=O)nc2ccc(C(F)(F)F)cn12 [compound 1],≥ 80,≥ 80,≥ 80,≥ 80,≥ 80,≥ 80,> 90,,,
CCNS(=O)(=O)c1c(-c2ccc(OCC(F)(F)C(F)(F)F)n(C)c2=O)nc2ccc(Br)cn12 [compound 2],≥ 80,≥ 80,,≥ 80,≥ 80,≥ 80,,≥ 80,,
CN(C)S(=O)(=O)c1c(-c2ccc(OCC(F)(F)C(F)(F)F)n(C)c2=O)nc2ccc(Br)cn12 [compound 3],≥ 80,≥ 80,,≥ 80,≥ 80,≥ 80,,≥ 80,,
CNS(=O)(=O)c1c(-c2ccc(OCC(F)(F)C(F)(F)F)n(C)c2=O)nc2ccc(I)cn12 [compound 4],≥ 80,≥ 80,≥ 80,≥ 80,≥ 80,≥ 80,> 90,≥ 80,≥ 80,
Cn1c(OCC(F)(F)C(F)(F)F)ncc(-c2nc3ccc(Br)cn3c2S(=O)(=O)NC2CC2)c1=O [compound 5],≥ 80,≥ 80,≥ 80,≥ 80,≥ 80,≥ 80,> 90,,,≥ 80
Cn1c(OCC(F)(F)C(F)(F)F)ncc(-c2nc3ccc(Br)cn3c2S(N)(=O)=O)c1=O [compound 6],≥ 80,≥ 80,,≥ 80,≥ 80,≥ 80,,≥ 80,,
CNS(=O)(=O)c1c(-c2cnc(OCC(F)(F)C(F)(F)F)n(C)c2=O)nc2ccc(I)cn12 [compound 7],≥ 80,≥ 80,≥ 80,≥ 80,≥ 80,≥ 80,> 90,≥ 80,,
CNS(=O)(=O)c1c(-c2cnc(OCC(F)(F)C(F)(F)F)n(C)c2=O)nc2cc(I)ccn12 [compound 8],≥ 80,≥ 80,≥ 80,≥ 80,≥ 80,≥ 80,> 90,≥ 80,,≥ 80
CNS(=O)(=O)c1c(-c2cnc(OCC(F)(F)C(F)(F)F)n(C)c2=O)nc2ccc(C(F)(F)F)cn12 [compound 9],≥ 80,≥ 80,,≥ 80,≥ 80,≥ 80,> 90,≥ 80,,
CNS(=O)(=O)c1c(-c2cnc(OCC(F)(F)C(F)(F)F)n(C)c2=O)nc2cc(C(F)(F)F)ccn12 [compound 10],≥ 80,≥ 80,≥ 80,≥ 80,≥ 80,≥ 80,> 90,≥ 80,,≥ 80
CN(C)S(=O)(=O)c1c(-n2cnc3ccc(OC(F)(F)F)cc3c2=O)nc2ccc(I)cn12 [compound 11],≥ 80,≥ 80,,≥ 80,≥ 80,≥ 80,,≥ 80,,
CNS(=O)(=O)c1c(-n2cnc3ccc(OC(F)(F)F)cc3c2=O)nc2ccc(I)cn12 [compound 12],≥ 80,≥ 80,,≥ 80,≥ 80,≥ 80,,≥ 80,,
